Measured values as given in the supplement of paper PMC10307832.

Assays:
Assay in all cases: relative viability (nuclei count vs DMSO), 5 days (fraction); higher = more cells survive
Shikonin + AZD7762 = compound: CC(C)=CC[C@@H](O)C1=CC(=O)c2c(O)ccc(O)c2C1=O [Shikonin] + NC(=O)Nc1cc(-c2cccc(F)c2)sc1C(=O)N[C@H]1CCCNC1 [AZD7762] (partner 0.2 µM)
In short: (§1)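 Relative viability is defined as nuclei in treated wells over nuclei in vehicle wells. Duplicate plates were run and medians reported. Lung cancer cell lines in 1536-well plates were dosed by pin tool one day after seeding, with one drug or with a fixed anchor-drug dose plus five library-drug doses (not always all listed) in √10 steps, and nuclei were counted after 5 days.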

[1] = compound: CC(C)N(CCCNC(=O)Nc1ccc(C(C)(C)C)cc1)C[C@H]1O[C@@H](n2ccc3c(N)ncnc32)[C@H](O)[C@@H]1O + Nc1ncn([C@H]2C[C@H](O)[C@@H](CO)O2)c(=O)n1 [Decitabine] (partner 2 µM)
In short: as §1

[2] = compound: CC(C)N(CCCNC(=O)Nc1ccc(C(C)(C)C)cc1)C[C@H]1O[C@@H](n2ccc3c(N)ncnc32)[C@H](O)[C@@H]1O + C[C@@H](Oc1cc(-c2cnn(C3CCNCC3)c2)cnc1N)c1c(Cl)ccc(F)c1Cl [Crizotinib] (partner 1 µM)
In short: as §1

Shikonin + Palbociclib = compound: CC(C)=CC[C@@H](O)C1=CC(=O)c2c(O)ccc(O)c2C1=O [Shikonin] + CC(=O)c1c(C)c2cnc(Nc3ccc(N4CCNCC4)cn3)nc2n(C2CCCC2)c1=O [Palbociclib] (partner 0.5 µM)
In short: as §1

Row | Cell Line | relative viability (Shikonin + AZD7762; first compound 0.01 µM) | relative viability (Shikonin + AZD7762; first compound 0.1 µM) | relative viability (Shikonin + AZD7762; first compound 0.3162 µM) | relative viability (Shikonin + AZD7762; first compound 1 µM) | relative viability ([1]; first compound 0.08 µM) | relative viability ([1]; first compound 0.253 µM) | relative viability ([1]; first compound 0.8 µM) | relative viability ([1]; first compound 2.53 µM) | relative viability ([1]; first compound 8 µM) | relative viability ([2]; first compound 0.08 µM) | relative viability ([2]; first compound 0.253 µM) | relative viability ([2]; first compound 0.8 µM) | relative viability ([2]; first compound 2.53 µM) | relative viability ([2]; first compound 8 µM) | relative viability (Shikonin + Palbociclib; first compound 0.01 µM) | relative viability (Shikonin + Palbociclib; first compound 0.1 µM) | relative viability (Shikonin + Palbociclib; first compound 0.3162 µM) | relative viability (Shikonin + Palbociclib; first compound 1 µM)
1 | NCI-H838 | 0.97 | 1.03 | 0.97 | 1.1 | 0.454 | 0.431 | 0.491 | 0.483 | 0.511 | 0.796 | 0.873 | 0.91 | 0.778 | 0.759 | 0.231 | 0.246 | 0.197 | 0.243
2 | LC-2-ad | 0.756 | 0.919 | 0.863 | 0.949 | 0.776 | 0.857 | 0.688 | 0.728 | 0.768 | 0.442 | 0.506 | 0.444 | 0.445 | 0.407 | 0.533 | 0.483 | 0.441 | 0.511
3 | BEN | 0.744 | 0.807 | 0.718 | 0.694 | 0.602 | 0.596 | 0.739 | 0.717 | 0.678 | 0.836 | 0.768 | 0.825 | 0.715 | 0.921 | 0.47 | 0.465 | 0.437 | 0.54
4 | EMC-BAC-2 | 1.15 | 1.32 | 1.21 | 1.16 | 0.939 | 1.02 | 1.07 | 1.09 | 0.96 | 0.729 | 0.727 | 0.655 | 0.643 | 0.707 | 0.512 | 0.573 | 0.538 | 0.513
5 | LU99A | 0.381 | 0.334 | 0.687 | 0.323 | 0.802 | 0.92 | 0.895 | 0.919 | 0.991 | 0.661 | 0.571 | 0.513 | 0.524 | 0.498 | 0.457 | 0.486 | 0.348 | 0.38
6 | ABC-1 | – | 1.13 | 0.644 | 0.741 | 1.03 | 1.23 | – | 1.15 | 1.32 | 0.816 | 0.926 | – | 1.26 | 1.13 | 0.904 | 0.592 | 0.892 | 0.586
7 | NCI-H2170 | 0.912 | 0.737 | 0.975 | 0.905 | 0.477 | 0.418 | 0.42 | 0.438 | 0.471 | 1.12 | 1.18 | 1.22 | 1.19 | 1.28 | 0.392 | 0.376 | 0.395 | 0.422
8 | NCI-H2405 | 0.794 | 0.986 | 0.716 | 0.77 | 0.723 | 0.748 | 0.741 | 0.745 | 0.708 | 0.875 | 0.822 | 0.782 | 0.865 | 0.856 | 0.527 | 0.569 | 0.558 | 0.509
9 | NCI-H441 | 1.39 | 0.935 | 1.16 | 1.43 | 0.278 | 0.251 | – | 0.218 | 0.252 | 0.815 | 0.872 | 1.09 | 0.714 | 0.673 | 0.225 | 0.219 | 0.225 | 0.231
